Peptide text beside a SMILES is read from it. * marks the point of attachment. Fmoc = O=C(OCC1c2ccccc2-c2ccccc21)*; tBu = CC(C)(C)*
Experiment: Physical stability of solid form on isolation/drying (crystallization screen)
Format: physicochemical
Details: wet solids from 1:1 v/v ACN/MTBE slurry, upon isolation/drying
Protocol: A crystallization screen was performed on Fmoc-G-P-S(tBu)-S(tBu)-G-OH (SEQ ID NO: 19) free form using various solvents and solvent mixtures. Different crystallization methods were employed including solvent-based techniques such as slurry, cooling, ambient and sub-ambient temperatures holding, solvent/anti-solvent addition, or combination of techniques, and non-solvent-based techniques such as heat stress.
Three solid forms were identified: Fmoc-G-P-S(tBu)-S(tBu)-G-OH (SEQ ID NO: 19) Form A, Fmoc-G-P-S(tBu)-S(tBu)-G-OH (SEQ ID NO: 19) Form C, and Fmoc-G-P-S(tBu)-S(tBu)-G-OH (SEQ ID NO: 19) Form D. Form A was a solvated form produced from 1-propanol (1-PrOH) or mixtures containing 1-PrOH (such as 1-PrOH/heptane). Form D is a solvated form produced from acetonitrile (ACN) or mixtures containing ACN (such as ACN/MTBE). Form C is a conversion product when Form D is isolated and dried.
The suspension was seeded with Fmoc-G-P-S(tBu)-S(tBu)-G-OH (SEQ ID NO: 19) Form C and then left at ambient conditions to continue stirring for 2 days.

Structure (SMILES): CC(C)(C)OC[C@H](NC(=O)[C@H](COC(C)(C)C)NC(=O)[C@@H]1CCCN1C(=O)CNC(=O)OCC1c2ccccc2-c2ccccc21)C(=O)NCC(=O)O [Fmoc-Gly-Pro-Ser(tBu)-Ser(tBu)-Gly-OH] (Fmoc-GPS(tBu)S(tBu)G-OH)
- physical stability of solid form: physically not stable

— patent US12304938B2, “Processes and intermediates for preparing tirzepatide” (Eli Lilly and Company, priority 2022, dated 2025)
